PubChem BioAssay (NCI)
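Where inhibition never reached the appropriate level, the endpoint shown equals the highest concentration tested. Otherwise, values were interpolated linearly from a five-concentration, 48-hour dose response in 96-well plates. Definition used: TGI = concentration required for complete inhibition of growth.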

Columns and labels:
Experiment in all cases: NCI anticancer screen, dose series, 48 h
PC-3 prostate = test system: PC-3 prostate
M14 melanoma = test system: M14 melanoma
HCC-2998 colon = test system: HCC-2998 colon
KM12 colon = test system: KM12 colon
SF-268 CNS = test system: SF-268 CNS
K-562 leukemia = test system: K-562 leukemia
SF-295 CNS = test system: SF-295 CNS
UACC-62 melanoma = test system: UACC-62 melanoma
HS 578T breast = test system: HS 578T breast
T-47D breast = test system: T-47D breast
SF-539 CNS = test system: SF-539 CNS

Nc1nc2c(C(=O)O)c3ccc([N+](=O)[O-])cc3c(=O)n2c2ccccc12
TGI (PC-3 prostate): 74.9 µM | TGI (M14 melanoma): 64.2 µM | TGI (HCC-2998 colon): > 100 µM | TGI (KM12 colon): > 100 µM | TGI (SF-268 CNS): 94.8 µM | TGI (K-562 leukemia): > 100 µM | TGI (SF-295 CNS): 95.5 µM | TGI (UACC-62 melanoma): > 100 µM | TGI (HS 578T breast): 70.6 µM | TGI (T-47D breast): 68.9 µM

CC1(C)CC(=O)c2c(nc3c4c([nH]c(-c5ccc(Br)cc5)c24)CC(C)(C)C3)C1
TGI (PC-3 prostate): > 100 µM | TGI (M14 melanoma): > 100 µM | TGI (HCC-2998 colon): > 100 µM | TGI (KM12 colon): > 100 µM | TGI (SF-268 CNS): > 100 µM | TGI (K-562 leukemia): > 100 µM | TGI (SF-295 CNS): > 100 µM | TGI (UACC-62 melanoma): > 100 µM | TGI (SF-539 CNS): > 100 µM | TGI (HS 578T breast): > 100 µM | TGI (T-47D breast): > 100 µM

Nc1ccc(Nc2cc(=O)[nH]c(=O)[nH]2)cc1Cl
TGI (PC-3 prostate): > 100 µM | TGI (M14 melanoma): > 100 µM | TGI (HCC-2998 colon): > 100 µM | TGI (SF-268 CNS): > 100 µM | TGI (K-562 leukemia): > 100 µM | TGI (SF-295 CNS): > 100 µM | TGI (UACC-62 melanoma): > 100 µM | TGI (SF-539 CNS): > 100 µM | TGI (HS 578T breast): > 100 µM | TGI (T-47D breast): > 100 µM

CN(C)CCc1c2c(nc3ccccc13)C(=O)c1cccnc1C2=O
TGI (PC-3 prostate): 3.02 µM | TGI (M14 melanoma): 0.4 µM | TGI (HCC-2998 colon): 2.71 µM | TGI (KM12 colon): 1.38 µM | TGI (SF-268 CNS): 2.69 µM | TGI (K-562 leukemia): > 29.1 µM | TGI (SF-295 CNS): 1.03 µM | TGI (UACC-62 melanoma): 0.738 µM | TGI (SF-539 CNS): 0.671 µM | TGI (HS 578T breast): 4.15 µM | TGI (T-47D breast): 10.6 µM

O=[N+]([O-])c1ccc(C(O)(C#CCN2CCCC2)c2ccccc2)cc1 (stereo not drawn)
TGI (PC-3 prostate): > 100 µM | TGI (M14 melanoma): 33.6 µM | TGI (HCC-2998 colon): 35.8 µM | TGI (KM12 colon): > 100 µM | TGI (SF-268 CNS): > 100 µM | TGI (K-562 leukemia): 42.6 µM | TGI (SF-295 CNS): > 100 µM | TGI (UACC-62 melanoma): 87.4 µM | TGI (SF-539 CNS): > 100 µM | TGI (HS 578T breast): 95.7 µM | TGI (T-47D breast): 98.9 µM

O=C1N[C@@H]2C(=C[C@H](O)[C@@H](O)[C@H]2O)c2cc3c(c(O)c21)OCO3
TGI (HCC-2998 colon): 0.0681 µM | TGI (KM12 colon): 0.405 µM | TGI (SF-268 CNS): 0.116 µM | TGI (K-562 leukemia): 0.0955 µM | TGI (SF-295 CNS): 0.245 µM | TGI (UACC-62 melanoma): 0.0587 µM | TGI (SF-539 CNS): 0.0486 µM

CC1CC(C#N)=C2NCCN2C1=O (stereo not drawn)
TGI (PC-3 prostate): > 100 µM | TGI (M14 melanoma): 33.5 µM | TGI (HCC-2998 colon): > 100 µM | TGI (KM12 colon): > 100 µM | TGI (SF-268 CNS): > 100 µM | TGI (K-562 leukemia): > 100 µM | TGI (SF-295 CNS): > 100 µM | TGI (SF-539 CNS): > 100 µM | TGI (HS 578T breast): > 100 µM | TGI (T-47D breast): > 100 µM

CCN(CCN(CC)C(=O)Nc1ccccc1)C(=O)Nc1ccccc1
TGI (PC-3 prostate): > 100 µM | TGI (M14 melanoma): > 100 µM | TGI (HCC-2998 colon): > 100 µM | TGI (SF-268 CNS): > 100 µM | TGI (K-562 leukemia): > 100 µM | TGI (SF-295 CNS): > 100 µM | TGI (UACC-62 melanoma): > 100 µM | TGI (HS 578T breast): > 100 µM | TGI (T-47D breast): > 100 µM

CN=C(Nc1cccc(C(F)(F)F)c1)SCc1ccc(N=C=S)cc1
TGI (PC-3 prostate): 29.4 µM | TGI (HCC-2998 colon): 29 µM | TGI (KM12 colon): 29.3 µM | TGI (SF-268 CNS): 73.3 µM | TGI (K-562 leukemia): > 100 µM | TGI (SF-295 CNS): 30.2 µM | TGI (UACC-62 melanoma): 24.6 µM | TGI (SF-539 CNS): 31.5 µM | TGI (HS 578T breast): 54.2 µM | TGI (T-47D breast): 29.9 µM

CO/N=C1/c2sccc2[C@H](NC(=O)C(Cc2ccccc2)NC(=O)OC(C)(C)C)[C@@H]1O (stereo partly drawn)
TGI (PC-3 prostate): > 100 µM | TGI (M14 melanoma): > 100 µM | TGI (HCC-2998 colon): > 100 µM | TGI (SF-268 CNS): > 100 µM | TGI (K-562 leukemia): > 100 µM | TGI (SF-295 CNS): > 100 µM | TGI (UACC-62 melanoma): > 100 µM | TGI (SF-539 CNS): > 100 µM | TGI (HS 578T breast): > 100 µM | TGI (T-47D breast): > 100 µM

COc1cc(Oc2nc3ccc(C(F)(F)F)cc3nc2-c2ccccc2)cc(OC)c1OC
TGI (PC-3 prostate): > 100 µM | TGI (HCC-2998 colon): > 100 µM | TGI (KM12 colon): > 100 µM | TGI (SF-268 CNS): 95.2 µM | TGI (K-562 leukemia): > 100 µM | TGI (SF-295 CNS): 28.2 µM | TGI (UACC-62 melanoma): 31.7 µM | TGI (SF-539 CNS): 60.8 µM | TGI (HS 578T breast): > 100 µM | TGI (T-47D breast): > 100 µM

O=NN(CCF)C(=O)NC1CCSCC1
TGI (HCC-2998 colon): > 100 µM | TGI (KM12 colon): > 100 µM | TGI (SF-268 CNS): > 100 µM | TGI (K-562 leukemia): > 31.6 µM | TGI (SF-295 CNS): > 100 µM | TGI (UACC-62 melanoma): > 100 µM | TGI (SF-539 CNS): > 100 µM

C=C(C)[C@@H]1CC[C@]2(C(=O)OC)CC[C@]3(C)[C@H](CC[C@@H]4[C@@]5(C)CC[C@H](O)C(C)(C)[C@@H]5CC[C@]43C)[C@@H]12
TGI (PC-3 prostate): 34.8 µM | TGI (M14 melanoma): > 100 µM | TGI (KM12 colon): > 100 µM | TGI (SF-268 CNS): 67.3 µM | TGI (K-562 leukemia): 47 µM | TGI (SF-295 CNS): 34.4 µM | TGI (SF-539 CNS): 34.9 µM | TGI (HS 578T breast): 56.5 µM | TGI (T-47D breast): 34 µM

CC[C@@]1(O)C(=O)OCc2c1cc1n(c2=O)Cc2c-1nc1ccccc1c2/C=N\NC(=O)C(N)CCSC (stereo partly drawn)
TGI (PC-3 prostate): > 100 µM | TGI (M14 melanoma): 0.473 µM | TGI (HCC-2998 colon): 5.26 µM | TGI (SF-268 CNS): 1.55 µM | TGI (K-562 leukemia): > 100 µM | TGI (SF-295 CNS): 0.315 µM | TGI (UACC-62 melanoma): < 0.043 µM | TGI (HS 578T breast): > 100 µM

Cn1c(=O)n2n(c1=O)C(C)(C13CC4CC(CC(C4)C1)C3)C13CC4CC(CC1C4)CC23 (stereo not drawn)
TGI (PC-3 prostate): > 100 µM | TGI (M14 melanoma): > 100 µM | TGI (KM12 colon): > 100 µM | TGI (SF-268 CNS): > 100 µM | TGI (K-562 leukemia): > 100 µM | TGI (SF-295 CNS): > 100 µM | TGI (UACC-62 melanoma): > 100 µM | TGI (SF-539 CNS): > 100 µM | TGI (HS 578T breast): > 100 µM | TGI (T-47D breast): > 100 µM

COC(=O)C1CCC(=O)N1C(c1ccc2c(c1)OCO2)c1cc(OC)c(OC)c(OC)c1 (stereo not drawn)
TGI (PC-3 prostate): > 100 µM | TGI (M14 melanoma): > 100 µM | TGI (HCC-2998 colon): > 100 µM | TGI (KM12 colon): > 100 µM | TGI (SF-268 CNS): > 100 µM | TGI (K-562 leukemia): > 100 µM | TGI (SF-295 CNS): > 100 µM | TGI (UACC-62 melanoma): > 100 µM | TGI (SF-539 CNS): > 100 µM | TGI (HS 578T breast): > 100 µM

O=C(c1ccccc1)c1c(CC(O)c2ccncc2)n(C(=O)c2ccccc2)c2ccccc12 (stereo not drawn)
TGI (M14 melanoma): 30.8 µM | TGI (HCC-2998 colon): 31.5 µM | TGI (KM12 colon): 37.8 µM | TGI (SF-268 CNS): 49.3 µM | TGI (SF-295 CNS): 26 µM | TGI (UACC-62 melanoma): 31.5 µM | TGI (SF-539 CNS): 32.1 µM

COC(=O)Cc1c(-c2c(CC(=O)OC)c3ccccc3n2C2OC(COC(C)=O)C(OC(C)=O)C(OC(C)=O)C2OC(C)=O)[nH]c2ccccc12 (stereo not drawn)
TGI (PC-3 prostate): > 100 µM | TGI (M14 melanoma): > 100 µM | TGI (HCC-2998 colon): > 100 µM | TGI (KM12 colon): > 100 µM | TGI (SF-268 CNS): > 100 µM | TGI (SF-295 CNS): > 100 µM | TGI (UACC-62 melanoma): > 100 µM

COc1ccc(NC(=O)C(=O)/C=C(\O)c2ccccc2)cc1
TGI (PC-3 prostate): > 10 µM | TGI (M14 melanoma): > 10 µM | TGI (HCC-2998 colon): > 10 µM | TGI (KM12 colon): > 10 µM | TGI (SF-268 CNS): > 10 µM | TGI (K-562 leukemia): > 10 µM | TGI (SF-295 CNS): > 10 µM | TGI (UACC-62 melanoma): > 10 µM | TGI (T-47D breast): > 10 µM

COc1ccc(C2=NOC(N)(c3ccc(OC)cc3)C2)cc1 (stereo not drawn)
TGI (PC-3 prostate): > 100 µM | TGI (M14 melanoma): > 100 µM | TGI (HCC-2998 colon): > 100 µM | TGI (KM12 colon): > 100 µM | TGI (K-562 leukemia): > 100 µM | TGI (SF-295 CNS): > 100 µM | TGI (UACC-62 melanoma): > 100 µM | TGI (SF-539 CNS): > 100 µM | TGI (HS 578T breast): > 100 µM

C=C1CC[C@@H](C)[C@](C)(CCc2ccoc2)C/C=C\C=C/1C(=O)O
TGI (PC-3 prostate): > 100 µM | TGI (M14 melanoma): > 100 µM | TGI (KM12 colon): > 100 µM | TGI (K-562 leukemia): > 100 µM | TGI (SF-295 CNS): > 100 µM | TGI (UACC-62 melanoma): > 100 µM | TGI (SF-539 CNS): 42.6 µM | TGI (HS 578T breast): > 100 µM

CSc1c(C#N)c(N)n(-c2ccc(Cl)cc2)c(=O)c1C#N
TGI (PC-3 prostate): > 100 µM | TGI (M14 melanoma): > 100 µM | TGI (HCC-2998 colon): > 100 µM | TGI (KM12 colon): > 100 µM | TGI (SF-268 CNS): > 100 µM | TGI (K-562 leukemia): > 100 µM | TGI (UACC-62 melanoma): > 100 µM | TGI (SF-539 CNS): > 100 µM | TGI (HS 578T breast): > 100 µM | TGI (T-47D breast): > 100 µM
